Experimental data as given in article PMC4931907 (eLife, 2016).
One block for each compound: values may come before it.

What was measured:
[1] = molecular target: T1, p300 (Homo sapiens, UniProt Q09472); experiment: In vitro HAT assay with recombinant p300, histones and 14C acetyl-CoA; assay type: biochemical; conditions: for IC50: in vitro HAT assay, recombinant p300 and histones, read-out: IC50, p300 acetyltransferase activity; for Inhibition of p300 acetyltransferase in vitro: data not shown
T1 construct: in vitro acetylation assays with purified histones and a recombinant p300 catalytic domain; purchased Enzo Life Sciences
T1 sequence (Q09472 1287-1663 limits assumed): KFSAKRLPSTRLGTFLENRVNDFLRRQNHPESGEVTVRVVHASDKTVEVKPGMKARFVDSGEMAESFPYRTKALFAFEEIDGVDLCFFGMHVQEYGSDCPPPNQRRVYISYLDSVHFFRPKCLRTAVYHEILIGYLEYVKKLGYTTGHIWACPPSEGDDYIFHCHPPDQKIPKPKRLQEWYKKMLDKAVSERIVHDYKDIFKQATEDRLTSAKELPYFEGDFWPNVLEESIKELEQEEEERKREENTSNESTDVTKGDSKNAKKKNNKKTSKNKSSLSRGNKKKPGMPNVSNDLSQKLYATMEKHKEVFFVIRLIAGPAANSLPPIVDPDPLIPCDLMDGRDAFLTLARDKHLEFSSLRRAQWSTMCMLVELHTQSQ
Description: To determine whether salicylate inhibits p300 and other acetyltransferases, we used in vitro acetylation assays with purified histones and a recombinant p300 catalytic domain.
(§1) Figure 1. Salicylate inhibits CBP/p300 in vitro. (A) Recombinant p300, CBP, GCN5, or PCAF and histones were incubated with ^14C-labeled acetyl-CoA with or without sodium salicylate, separated by SDS-PAGE, analyzed by autoradiography, and quantified with Image J software. Acetylation levels are relative to those in untreated controls. (B) Thermal stability assay for sodium salicylate binding to the p300 HAT domain. Tm, melting temperature. (C) and (D) Lineweaver-Burk plots showing kinetic analysis of p300 acetyltransferase inhibition by sodium salicylate. Histone acetylation was measured with several concentrations of acetyl-CoA (C) or histone (D) in the presence or absence of sodium salicylate. DOI: http://dx.doi.org/10.7554/eLife.11156.003 Figure 1—figure supplement 1. […] (A) Dose-response data for inhibition of p300 by salicylate and salicyl-CoA. Acetylation of an H4(3–14) peptide was monitored using direct microfluidic mobility shift analysis as previously described ([Montgomery et al., 2014]; [Fanslau et al., 2010]). Error is given as the 95% confidence interval. […] Error is given as the 95% confidence interval. DOI: http://dx.doi.org/10.7554/eLife.11156.004 [drawing 1] TEXT PRINTED IN THE PICTURE: (A) Salicylate: p300 IC50 (mM): 6.12; Confidence Interval [CI95] (mM): 5.2–7.2 | (A) Salicyl-CoA: p300 IC50 (mM): […]; Confidence Interval [CI95] […] (mM): 0.78–1.4 | (B) Diflunisal-CoA: p300 IC50 (mM): 0.02; Confidence Interval [CI95] (mM): 0.02–0.03
Recombinant HAT ([…]), either p300, CBP, PCAF, or GCN5 (Enzo Life Sciences), and 10 µg of histones (Sigma) were incubated with sodium salicylate (Sigma) in reaction buffer (50 mM HEPES, pH 8.0, 10% glycerol, 1 mM) at 30°C for 30 min and then with 0.1 mCi of ^14C acetyl-CoA at 30°C for 60 min. Reactions were stopped by adding 6x sample buffer and analyzed by SDS-PAGE. The gels were dried, and signals were obtained by autoradiography and quantified with Image J software. To quantify acetylated histone levels, we generated a standard curve from signals of lanes loaded with […] of ^14C labeled histones.

[2] = molecular target: T1, p300; experiment: p300 inhibition by direct microfluidic mobility shift analysis, H4(3–14) peptide; assay type: biochemical; conditions: for IC50: microfluidic mobility shift, H4(3–14) peptide, 5 μM acetyl-CoA; for Fold increased potency of CoA metabolite in comparison with parent drug: ratio of p300 IC50 values
Description: as §1
Salicyl-CoA and diflunisal-CoA were synthesized from their parent carboxylic acids and HPLC purified according to previously reported methods ([Padmakumar et al., 1997]). The purity of each acyl-CoA was confirmed by analytical HPLC prior immediately prior to utilization ([Montgomery et al., 2014]; [Fanslau et al., 2010]). P300 inhibition assays were performed using direct microfluidic mobility shift analysis as previously described. Briefly, p300 reaction mixture (50 mM HEPES, pH 7.5, 50 mM NaCl, 2 mM EDTA, 2 mM DTT, 0.05% Triton-X-100, 50 nM p300, 2 μM FITC-histone H4 peptide) was plated in 384-well plates and allowed to equilibrate at room temperature for 10 min. Reactions were initiated by addition of acetyl-CoA (final concentration = 5 μM), bringing the final assay volume to 30 μL. Assays were quenched after 10 min (<15% product accumulation) by addition of 5 μL of 0.5 M neutral hydroxylamine and transferred to a Perkin-Elmer Lab-Chip EZ-Reader instrument for analysis. Separation conditions were: downstream voltage of −500 V, upstream voltage of −2500 V, and a pressure of −1.5 psi. Percent conversion was calculated by ratiometric measurement of substrate/product peak heights. Percent activity represents the percent conversion of KAT reactions treated with inhibitors relative to untreated control KAT reactions, and corrected for nonenzymatic acetylation. Dose-response analysis of p300 inhibition was performed in triplicate and analyzed by nonlinear least-squares regression fit to Y = 100/(1 + 10∧(Log IC50 – X)*H), where H = Hill slope (variable). IC50 values represent the concentration that inhibits 50% of KAT activity. Calculations were performed using Prism 6 (GraphPad) software.

IC50 [1]: 374 µM
SMILES: CCOc1cc(CC(=O)N[C@@H](CC(C)C)c2ccccc2N2CCCCC2)ccc1C(=O)O [repaglinide]

IC50 [2]: 20 µM | Fold increased potency of CoA metabolite in comparison with parent drug [2]: 52 fold
SMILES: CC(C)(COP(=O)(O)OP(=O)(O)OCC1OC(n2cnc3c(N)ncnc32)C(O)C1OP(=O)(O)O)C(O)C(=O)NCCC(=O)NCCSC(=O)c1cc(-c2ccc(F)cc2F)ccc1O (centres unmarked) [diflunisal-CoA]

IC50 [1]: 7600 µM
SMILES: Nc1ccc(O)c(C(=O)O)c1 [5-Amino- Salicylic Acid, 5-aminosalicylic acid]

IC50 [1]: 14200 µM
SMILES: CC(=O)Oc1ccccc1C(=O)O [Acetyl- Salicylic Acid, acetylsalicylic acid]

IC50 [2]: 220 µM | Fold increased potency of CoA metabolite in comparison with parent drug [2]: 28 fold
SMILES: CC(C)(COP(=O)(O)OP(=O)(O)OC[C@H]1O[C@@H](n2cnc3c(N)ncnc32)[C@H](O)[C@@H]1OP(=O)(O)O)[C@@H](O)C(=O)NCCC(=O)NCCSC(=O)c1ccccc1O [salicyl-CoA]

Inhibition of p300 acetyltransferase in vitro [1]: did not detect any inhibitory activity
SMILES: COc1ccc2c(c1)c(CC(=O)O)c(C)n2C(=O)c1ccc(Cl)cc1 [indomethacin]

SMILES: Nc1ccc(C(=O)O)c(O)c1 [4-Amino- Salicylic Acid, 4-aminosalicylic acid]
IC50 [1]: 12400 µM

IC50 [1]: 664 µM
SMILES: COc1c(C)c2c(c(O)c1C/C=C(\C)CCC(=O)O)C(=O)OC2 [mycophenolic acid]

Inhibition of p300 acetyltransferase in vitro [1]: did not detect any inhibitory activity
SMILES: CC(=O)Nc1ccc(O)cc1 [acetaminophen]
